Earlier results in patent publication US6645390B1, “Composition and method for treating hydrocarbon fires” (Hazard Control Technologies, Inc., priority 1994, dated 2003).

## isononanoic acid
  solubility in water: slightly soluble
At the concentration of its slight solubility in water
  pH: about 3.5
